Measured values as given in patent publication US4710568A, “Carbapenem antibiotics” (priority 1986, dated 1987).
≈ marks a conversion by molar mass, not a printed value. Where two headings read alike, the source gives them in different places.

Experiments:
E. coli A15119 = experiment: MIC by tube dilution in Nutrient Broth; format: cell-based; settings: overnight at 37° C.
S. pyogenes A-9604 = experiment: MIC by tube dilution in Nutrient Broth; format: cell-based; settings: additional data; overnight at 37° C.
E. cloacae A-9656 = experiment: MIC by tube dilution in Nutrient Broth; format: cell-based; settings: additional data; overnight at 37° C.
[1] = tested on: S. aureus (Pen-res.) A-9606; experiment: MIC by tube dilution in Nutrient Broth; format: cell-based; settings: additional data, overnight at 37° C.
P. rettgeri A22424 = experiment: MIC by tube dilution in Nutrient Broth; format: cell-based; settings: additional data; overnight at 37° C.
E. cloacae A-9659 = experiment: MIC by tube dilution in Nutrient Broth; format: cell-based; settings: additional data; overnight at 37° C.
S. aureus A-9537 = experiment: MIC by tube dilution in Nutrient Broth; format: cell-based; settings: additional data, overnight at 37° C.
S. pneumoniae A-9585 = experiment: MIC by tube dilution in Nutrient Broth; format: cell-based; settings: additional data; overnight at 37° C.
P. aeruginosa A-9843A = experiment: MIC by tube dilution in Nutrient Broth; format: cell-based; settings: additional data; overnight at 37° C.
S. faecalis A20688 = experiment: MIC by tube dilution in Nutrient Broth; format: cell-based; settings: additional data; overnight at 37° C.
P. morganii A15153 = experiment: MIC by tube dilution in Nutrient Broth; format: cell-based; settings: additional data (M. morganii A15153); overnight at 37° C.
K. pneumoniae A20468 = experiment: MIC by tube dilution in Nutrient Broth; format: cell-based; settings: additional data; overnight at 37° C.
[2] = half-life in phosphate buffer pH 7.4; format: physicochemical; settings: for t1/2: pH 7.4
Experimental: To a solution of p-nitrobenzyl 3-[2-(1-pyridinium)ethylthio]-6α-[1-(R)-hydroxyethyl]-7-oxo-1-azabicyclo(3.2.0)hept-2-ene-carboxylate diphenylphosphate (0.16 g, 0.22 mmol) in wet tetrahydrofuran (10 mL) was added ether (10 mL), potassium phosphate monobasic-sodium hydroxide buffer pH 7.4 (16 mL, 0.05M) and 10% palladium on charcoal (0.16 g). The resulting mixture was hydrogenated under 40 psi for 1 h at 25° C. The two phases were separated and the organic phase was extracted with water (2×3 mL). The aqueous solutions were combined, washed with ether (2×10 mL) and poured on top of a column (1.5×6.2 cm) of μ-bondapak C-18 after the traces of organic solvents have been removed under vacuum.
To a solution of p-nitrobenzyl 3-[2-(1-(3,5-dimethylpyridinium))ethylthio]-6α-[1-(R)-hydroxyethyl]- 7-oxo-1-azabicyclo(3.2.0)hept-2-ene-2-carboxylate diphenylphosphate (0.600 g, 0.80 mmol) in wet tetrahydrofuran (36 mL) was added ether (36 mL), potassium phosphate monobasic-sodium hydroxide buffer (0.05M, pH 7.4, 44 mL) and 10% palladium on charcoal (0.60 g). The resulting mixture was hydrogenated under 40 psi at 23° C. for 1.25 h. The organic layer was separated and extracted with buffer (2×5 mL). […] Elution of the column with water and lyophilization of the appropriate fractions gave the title compound 0.186 g (64%) as a yellowish powder, ir (KBr) .nu.max : 3700-3100 (OH), 1760 (C= O of β-lactam), 1595 cm^-1 (carboxylate), ^1 Hmr (D2 O) δ: 1.21 (3H, d, J=6.3 Hz, CH3 CHOH), 2.45 (6H, s, CH3 on pyridinium), 2.81 (d, J=9.2 Hz, H-4), 2.96 (d, J=9.2 Hz, H-4), 3.22 (dd, J=2.6 Hz, J=6.2 Hz, H-6), 3.40 (t, J=6.2 Hz, CH2 S), 3.84 (dd, J=9.2 Hz, J=2.6 Hz, H-5), 4.15 (m, CH3 CHOH), 4.71 (t, J=6.2 Hz, CH2 N^+), 8.21 (1H, s, Hp of pyridinium), 8.46 (2H, s, Ho of pyridinium), uv (H2 O) λmax : 279 (ε8345), 296 (ε7714) m, [α]D^23 +40.7 (c 0.53, H2 O), .tau.1/2 =16.9 h (measured at a concentration of […] in phosphate buffer pH 7.4 at 36.8° C.). […]

P. mirabilis A-9900 = experiment: MIC by tube dilution in Nutrient Broth; format: cell-based; settings: additional data; overnight at 37° C.
P. aeruginosa A21213 = experiment: MIC by tube dilution in Nutrient Broth; format: cell-based; settings: additional data; overnight at 37° C.
P. vulgaris A21559 = experiment: MIC by tube dilution in Nutrient Broth; format: cell-based; settings: additional data; overnight at 37° C.
E. coli A20341-1 = experiment: MIC by tube dilution in Nutrient Broth; format: cell-based; settings: overnight at 37° C.
K. pneumoniae A-9664 = experiment: MIC by tube dilution in Nutrient Broth; format: cell-based; settings: additional data; overnight at 37° C.
S. marcescens A20019 = experiment: MIC by tube dilution in Nutrient Broth; format: cell-based; settings: additional data; overnight at 37° C.
[3] = Escherichia coli, A15119, additional data, read-out: MIC

Row | SMILES | MIC (S. pyogenes A-9604) [µg/mL] | MIC (S. aureus A-9537; 50% serum) [µg/mL] | MIC (S. aureus A-9537) [µg/mL] | MIC (S. pneumoniae A-9585) [µg/mL] | MIC (P. aeruginosa A-9843A) [µg/mL] | MIC (S. faecalis A20688) [µg/mL] | MIC (P. morganii A15153) [µg/mL] | MIC (P. mirabilis A-9900) [µg/mL] | MIC (P. aeruginosa A21213) [µg/mL] | MIC (P. vulgaris A21559) [µg/mL] | further results
1 | Cc1cccc(C)[n+]1CCSC1=C(C(=O)[O-])N2C(=O)[C@H]([C@@H](C)O)[C@H]2C1 [Ex. 12] |  |  |  |  |  |  |  |  |  |  | MIC (E. coli A15119; [3]): 0.03 µg/mL (≈ 0.0828 µM)
2 | CC(C[n+]1ccccc1)SC1=C(C(=O)[O-])N2C(=O)[C@H]([C@@H](C)O)[C@H]2C1 (single isomer, unassigned) [Ex. 15 (cmp. "A")] | 0.004 (≈ 0.0115 µM) | 0.06 (≈ 0.172 µM) | 0.016 (≈ 0.0459 µM) | 0.004 (≈ 0.0115 µM) | 8 (≈ 23 µM) | 2 (≈ 5.74 µM) | 0.13 (≈ 0.373 µM) | 0.13 (≈ 0.373 µM) |  |  | MIC (E. cloacae A-9656): 0.25 µg/mL (≈ 0.718 µM); MIC [1]: 0.06 µg/mL (≈ 0.172 µM); MIC (P. rettgeri A22424): 0.25 µg/mL (≈ 0.718 µM); MIC (E. cloacae A-9659): 0.13 µg/mL (≈ 0.373 µM); MIC (E. coli A15119; additional data): 0.03 µg/mL (≈ 0.0861 µM); MIC (K. pneumoniae A20468): 0.13 µg/mL (≈ 0.373 µM); t1/2 [2]: 15.6 h
3 | C[C@@H](O)[C@H]1C(=O)N2C(C(=O)[O-])=C(SC3CCCCC3[n+]3ccccc3)C[C@H]12 (single isomer, unassigned) [Ex. 16 (cmp. "B"), (5R,6S)3-[2-[(R or S)-(1-pyridinium)]-1-(R or S)-cyclohexylthio]-6-[1-(R)-hydroxyethyl]-7-oxo-1-azabicyclo(3.2.0)hept-2-ene-2-carboxylate] |  |  | 0.13 (≈ 0.335 µM) |  |  |  | 0.5 (≈ 1.29 µM) |  | 8 (≈ 20.6 µM) | 0.13 (≈ 0.335 µM) | t1/2 [2]: 20.2 h
4 | C[C@@H](O)[C@H]1C(=O)N2C(C(=O)[O-])=C(SC3CCCCC3[n+]3ccccc3)C[C@H]12 (single isomer, unassigned) [Ex. 16 (cmp. "A"), (5R,6S)3-[2-[(R or S)-(1-pyridinium)]-1-(R or S)-cyclohexylthio]-6-[1-(R)-hydroxyethyl]-7-oxo-1-azabicyclo(3.2.0)hept-2-ene-2-carboxylate] | 0.004 (≈ 0.0103 µM) | 0.06 (≈ 0.154 µM) | 0.06 (≈ 0.154 µM) | 0.004 (≈ 0.0103 µM) | 32 (≈ 82.4 µM) | 4 (≈ 10.3 µM) | 0.13 (≈ 0.335 µM) | 0.13 (≈ 0.335 µM) | 2 (≈ 5.15 µM) | 0.06 (≈ 0.154 µM) | MIC ([1]; Staphylococcus aureus, read-out: MIC): 0.13 µg/mL (≈ 0.335 µM); MIC (P. rettgeri A22424): 4 µg/mL (≈ 10.3 µM); MIC (E. coli A20341-1; additional data): 0.06 µg/mL (≈ 0.154 µM); MIC (K. pneumoniae A-9664): 0.13 µg/mL (≈ 0.335 µM); half-life ([2]; pH 7.4, t1/2): 16.6 h
5 | COc1ccc[n+](CCSC2=C(C(=O)[O-])N3C(=O)[C@H]([C@@H](C)O)[C@H]3C2)c1 [Ex. 10, 3-[2-(3-methoxy-1-pyridinium)ethylthio]6α-[1'-(R)-hydroxyethyl]-7-oxo-1-azabicyclo(3.2.0)hept-2-ene-2-carboxylate] |  |  |  |  |  |  |  |  |  |  | MIC (E. coli A20341-1; Escherichia coli, A203411, additional data, read-out: MIC): 0.06 µg/mL (≈ 0.165 µM)
6 | CC(C[n+]1ccccc1)SC1=C(C(=O)[O-])N2C(=O)[C@H]([C@@H](C)O)[C@H]2C1 (single isomer, unassigned) [Ex. 15 (cmp. "B")] | 0.001 (≈ 0.00287 µM) | 0.016 (≈ 0.0459 µM) | 0.004 (≈ 0.0115 µM) | 0.001 (≈ 0.00287 µM) | 32 (≈ 91.8 µM) | 0.5 (≈ 1.44 µM) | 0.06 (≈ 0.172 µM) | 0.03 (≈ 0.0861 µM) | 1 (≈ 2.87 µM) | 0.016 (≈ 0.0459 µM) | MIC [1]: 0.016 µg/mL (≈ 0.0459 µM); MIC (E. coli A20341-1; additional data): 0.016 µg/mL (≈ 0.0459 µM); MIC (E. cloacae A-9659): 0.06 µg/mL (≈ 0.172 µM); MIC (E. coli A15119; additional data): 0.008 µg/mL (≈ 0.023 µM); MIC (S. marcescens A20019): 0.03 µg/mL (≈ 0.0861 µM); MIC (K. pneumoniae A-9664): 0.03 µg/mL (≈ 0.0861 µM); MIC (K. pneumoniae A20468): 0.06 µg/mL (≈ 0.172 µM)
7 | C[C@@H](O)[C@H]1C(=O)N2C(C(=O)[O-])=C(SCC[n+]3cccc(N)c3)C[C@H]12 [Ex. 14, (5R,6S)-3-[2-(3-aminopyridinio)ethylthio]-6-[1-(R)-hydroxyethyl]-7-oxo-1-azabicyclo[3.2.0]hept-2-ene-2-carboxylate] |  |  |  |  |  |  |  |  |  |  | MIC (E. coli A15119; [3]): 0.03 µg/mL (≈ 0.0859 µM)
